One test deals with T1, Streptokinase A (Streptococcus pyogenes serotype M1, UniProt P10520).
T1 sequence (P10520 whole entry): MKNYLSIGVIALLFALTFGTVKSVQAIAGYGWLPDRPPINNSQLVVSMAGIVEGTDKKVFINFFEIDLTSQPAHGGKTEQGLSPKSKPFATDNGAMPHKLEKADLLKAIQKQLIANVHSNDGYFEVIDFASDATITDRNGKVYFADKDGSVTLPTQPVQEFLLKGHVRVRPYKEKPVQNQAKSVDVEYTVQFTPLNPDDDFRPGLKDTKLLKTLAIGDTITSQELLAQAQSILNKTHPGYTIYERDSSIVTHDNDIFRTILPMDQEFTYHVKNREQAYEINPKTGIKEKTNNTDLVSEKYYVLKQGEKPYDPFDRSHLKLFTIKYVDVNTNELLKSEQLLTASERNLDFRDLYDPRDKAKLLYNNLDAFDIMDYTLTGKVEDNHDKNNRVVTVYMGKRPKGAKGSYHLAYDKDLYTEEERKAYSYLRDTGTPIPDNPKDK
As to the kind of experiment: S. pyogenes streptokinase expression inhibitors, potency, dose response, plasminogen activation absorbance, OD405 (AID 1914).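 Further: secreted streptokinase activity via plasminogen activation per viability signal from cell pellet.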 Type of test: functional, Streptococcus pyogenes M1 GAS.

A further test relates to INS1. Put plainly: beta cell apoptosis inhibitors, cytokine rescue, dose response, luminescence, retest (AID 449756).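 Further: cell death triggered by IL-1 beta plus TNF-alpha plus IFN-gamma mixture; protective hits raise ATP signal compared with cytokine alone wells.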 The format is functional, cell-based. To be noted: Rattus norvegicus.
For the next test, the system named is Streptococcus. Put plainly: Group A Streptococcus viability loss, dose response, counter-screen for streptokinase expression inhibitor project, luminescence, BacTiterGlo (AID 1915).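 Further: potency for reduction of bacterial viability or growth.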 Type of test: functional, organism-based. A general note: The purpose of a counterscreen is to sort out artefacts and off-target activity.
The target of test [1] is T2, Serine/threonine-protein phosphatase (Candida dubliniensis (strain CD36 / CBS 7987 / NCPF 3949 / NRRLY-17841) (Yeast), UniProt B9W6M3).
T2 sequence (B9W6M3 whole entry): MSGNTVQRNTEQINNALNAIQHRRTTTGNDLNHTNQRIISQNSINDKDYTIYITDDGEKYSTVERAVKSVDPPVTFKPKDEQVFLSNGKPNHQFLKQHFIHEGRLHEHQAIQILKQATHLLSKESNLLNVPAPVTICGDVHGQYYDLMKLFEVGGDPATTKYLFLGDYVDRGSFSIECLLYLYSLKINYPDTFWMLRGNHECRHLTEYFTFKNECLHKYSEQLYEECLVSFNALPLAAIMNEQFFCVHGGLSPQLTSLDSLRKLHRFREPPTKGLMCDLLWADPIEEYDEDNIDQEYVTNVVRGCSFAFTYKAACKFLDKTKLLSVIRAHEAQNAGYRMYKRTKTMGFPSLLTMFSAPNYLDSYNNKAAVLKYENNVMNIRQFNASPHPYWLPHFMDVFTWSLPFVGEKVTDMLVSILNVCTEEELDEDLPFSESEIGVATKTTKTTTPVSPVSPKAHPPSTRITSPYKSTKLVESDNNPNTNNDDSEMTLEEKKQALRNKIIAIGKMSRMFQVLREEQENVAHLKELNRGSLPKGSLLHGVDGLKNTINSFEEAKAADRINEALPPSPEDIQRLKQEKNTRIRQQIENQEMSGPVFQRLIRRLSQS
As to the kind of experiment: calcineurin pathway inhibitors in yeast reporter, dose response, S. cerevisiae, CDRE-lacZ, luminescence, secondary (AID 2388).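 Further: yeast reporter cells carrying a calcineurin-responsive lacZ construct stimulated with calcium chloride; luminescent beta-galactosidase reporter signal in whole cells rather than isolated phosphatase activity; potency for inhibition where a drop in reporter signal means calcineurin blockade.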 The format is functional, cell-based.

For test [2], the target named is Fibroblast growth factor receptor 1 (Homo sapiens, UniProt P11362). The format is functional.
Fibroblast growth factor receptor 1, sequence (P11362 whole entry): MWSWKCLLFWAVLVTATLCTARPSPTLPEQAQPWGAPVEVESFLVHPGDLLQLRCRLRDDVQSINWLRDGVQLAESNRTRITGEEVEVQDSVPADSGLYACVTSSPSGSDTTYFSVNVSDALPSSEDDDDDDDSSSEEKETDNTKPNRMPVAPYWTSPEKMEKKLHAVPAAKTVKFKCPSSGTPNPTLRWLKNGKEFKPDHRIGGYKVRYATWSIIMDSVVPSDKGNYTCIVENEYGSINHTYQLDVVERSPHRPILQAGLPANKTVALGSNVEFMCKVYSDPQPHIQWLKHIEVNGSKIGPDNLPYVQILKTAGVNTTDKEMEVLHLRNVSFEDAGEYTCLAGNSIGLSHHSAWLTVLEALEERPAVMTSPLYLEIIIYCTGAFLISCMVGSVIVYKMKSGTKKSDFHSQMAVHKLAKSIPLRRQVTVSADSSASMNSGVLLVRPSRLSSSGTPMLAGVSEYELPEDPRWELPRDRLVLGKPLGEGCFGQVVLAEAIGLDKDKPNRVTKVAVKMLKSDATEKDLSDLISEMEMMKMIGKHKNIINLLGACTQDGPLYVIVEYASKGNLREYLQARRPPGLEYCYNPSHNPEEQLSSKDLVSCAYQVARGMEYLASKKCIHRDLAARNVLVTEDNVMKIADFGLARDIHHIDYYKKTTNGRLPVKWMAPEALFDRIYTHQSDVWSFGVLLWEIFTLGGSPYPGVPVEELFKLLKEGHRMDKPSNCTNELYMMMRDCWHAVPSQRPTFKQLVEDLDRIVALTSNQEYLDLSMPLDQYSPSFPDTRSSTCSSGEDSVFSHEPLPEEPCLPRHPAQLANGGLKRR
The target in test [3] is Receptor tyrosine-protein kinase erbB-4 (Homo sapiens, UniProt Q15303). The format is functional.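 Further: ERBB4 member of a kinome-wide kinase profiling panel.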
The target in test [4] is Serine/threonine-protein kinase D2 (Homo sapiens, UniProt Q9BZL6). Type of test: functional.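 Further: measured against PRKD2 as one member of a kinome-wide kinase profiling panel.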
Test [5] addresses Serine/threonine-protein kinase PLK1 (Homo sapiens, UniProt P53350). The format is functional.
Test [6] has as its target Epidermal growth factor receptor (Homo sapiens, UniProt P00533).
Test [7] has as its target Serine/threonine-protein kinase MRCK alpha (Homo sapiens, UniProt Q5VT25). The format is functional.
For test [8], the target named is Dual specificity tyrosine-phosphorylation-regulated kinase 3 (Homo sapiens, UniProt O43781). The format is functional.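 Further: measured as one member of a broad kinase panel.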
Test [9] deals with Serine/threonine-protein kinase Chk1 (Homo sapiens, UniProt O14757). The format is functional.
The target in test [10] is Serine/threonine-protein kinase N2 (Homo sapiens, UniProt Q16513). Type of test: functional.
Test [11] addresses Tyrosine-protein kinase Lck (Homo sapiens, UniProt P06239). Type of test: functional.
For test [12], the target named is cAMP-dependent protein kinase catalytic subunit alpha (Homo sapiens, UniProt P17612). The format is functional.
The target in test [13] is Fibroblast growth factor receptor 3 (Homo sapiens, UniProt P22607). The format is functional.
Test [14] deals with Tyrosine-protein kinase Fer (Homo sapiens, UniProt P16591). The format is functional.
Test [15] has as its target Cell division cycle 7-related protein kinase (Homo sapiens, UniProt O00311). The format is functional.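 Further: value obtained from a kinome-wide kinase panel.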
The target in test [16] is Death-associated protein kinase 3 (Homo sapiens, UniProt O43293). The format is functional.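 Further: measured as one member of a kinome-wide profiling panel.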
Test [17] concerns the target Rho-associated protein kinase 1 (Homo sapiens, UniProt Q13464). Type of test: functional.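 Further: measured within a broad kinome-wide panel profiling many kinases.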
For a further test, the target named is Aurora kinase A (Homo sapiens, UniProt O14965). The format is functional.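 Further: value from the Navigating the Kinome kinase panel profiling, panel entry STK6.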
Test [18] deals with Testis-specific serine/threonine-protein kinase 1 (Homo sapiens, UniProt Q9BXA7). The format is functional.
Testis-specific serine/threonine-protein kinase 1, sequence (Q9BXA7 whole entry): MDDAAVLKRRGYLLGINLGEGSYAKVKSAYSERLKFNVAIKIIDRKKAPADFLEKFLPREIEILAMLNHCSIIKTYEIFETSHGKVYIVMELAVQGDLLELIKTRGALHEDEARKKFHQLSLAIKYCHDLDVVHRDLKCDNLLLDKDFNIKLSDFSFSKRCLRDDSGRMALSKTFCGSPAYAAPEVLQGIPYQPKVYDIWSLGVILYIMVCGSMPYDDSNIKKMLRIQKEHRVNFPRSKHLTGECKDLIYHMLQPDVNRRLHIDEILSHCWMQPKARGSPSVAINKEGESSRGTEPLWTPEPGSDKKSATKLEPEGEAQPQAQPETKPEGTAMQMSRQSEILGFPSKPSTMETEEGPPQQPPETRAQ
Test [19] deals with Tyrosine-protein kinase ITK/TSK (Homo sapiens, UniProt Q08881). The format is functional.
For the next test, the system named is HeLa. Put plainly: HeLa cell cytotoxicity, dose response, cytotoxicity control, 24 h, cherry-picked samples (AID 504726).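 Further: potency for cytotoxicity as loss of luminescence signal.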 Type of test: functional, cell-based. Particulars: Homo sapiens.
The target in test [20] is Induced myeloid leukemia cell differentiation protein Mcl-1 (Homo sapiens, UniProt Q07820). The format is functional.
Induced myeloid leukemia cell differentiation protein Mcl-1, sequence (Q07820 whole entry): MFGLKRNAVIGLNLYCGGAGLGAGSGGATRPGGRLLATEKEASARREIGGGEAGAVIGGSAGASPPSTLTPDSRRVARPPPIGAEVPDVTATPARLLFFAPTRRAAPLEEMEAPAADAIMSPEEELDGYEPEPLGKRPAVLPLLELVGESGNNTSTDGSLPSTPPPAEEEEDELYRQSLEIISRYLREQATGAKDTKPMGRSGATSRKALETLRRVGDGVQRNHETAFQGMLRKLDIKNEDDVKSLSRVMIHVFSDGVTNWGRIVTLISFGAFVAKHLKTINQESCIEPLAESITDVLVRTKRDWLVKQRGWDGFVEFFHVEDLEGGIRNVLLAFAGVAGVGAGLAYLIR
The next test addresses T3, Caspase-6 (Homo sapiens, UniProt P55212).
T3 sequence (P55212 whole entry): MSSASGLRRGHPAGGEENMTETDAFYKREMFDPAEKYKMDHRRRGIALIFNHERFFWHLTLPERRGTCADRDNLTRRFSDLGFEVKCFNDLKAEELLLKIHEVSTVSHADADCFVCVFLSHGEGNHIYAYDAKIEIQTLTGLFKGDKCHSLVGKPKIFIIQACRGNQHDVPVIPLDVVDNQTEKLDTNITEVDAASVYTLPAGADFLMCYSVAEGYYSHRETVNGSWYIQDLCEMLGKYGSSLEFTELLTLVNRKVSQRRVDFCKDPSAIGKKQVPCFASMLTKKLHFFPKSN
Put plainly: human caspase-6 inhibitors, dose response, biochemical, VEID-R110 fluorescence, cherry-pick (AID 720632).

Calls of active or inactive are those of the source.

Serine/threonine-protein kinase PLK1, sequence (P53350 whole entry): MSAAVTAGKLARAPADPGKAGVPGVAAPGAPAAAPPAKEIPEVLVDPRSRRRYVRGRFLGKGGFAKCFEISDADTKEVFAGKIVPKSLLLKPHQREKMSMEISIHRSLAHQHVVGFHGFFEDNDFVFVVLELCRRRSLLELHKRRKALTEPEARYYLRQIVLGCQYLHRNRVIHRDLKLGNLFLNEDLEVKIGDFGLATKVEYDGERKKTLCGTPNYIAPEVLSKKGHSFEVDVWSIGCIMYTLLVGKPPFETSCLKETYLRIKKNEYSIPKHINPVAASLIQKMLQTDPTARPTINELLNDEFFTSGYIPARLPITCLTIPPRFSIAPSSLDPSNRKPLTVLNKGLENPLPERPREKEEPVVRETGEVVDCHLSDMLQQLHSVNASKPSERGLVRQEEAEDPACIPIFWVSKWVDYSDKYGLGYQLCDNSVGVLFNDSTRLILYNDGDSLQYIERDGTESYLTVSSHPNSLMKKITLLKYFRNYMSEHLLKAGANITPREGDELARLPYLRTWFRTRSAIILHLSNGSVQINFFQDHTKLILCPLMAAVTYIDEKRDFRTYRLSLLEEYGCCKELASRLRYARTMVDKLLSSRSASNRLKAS
Epidermal growth factor receptor, sequence (P00533 whole entry): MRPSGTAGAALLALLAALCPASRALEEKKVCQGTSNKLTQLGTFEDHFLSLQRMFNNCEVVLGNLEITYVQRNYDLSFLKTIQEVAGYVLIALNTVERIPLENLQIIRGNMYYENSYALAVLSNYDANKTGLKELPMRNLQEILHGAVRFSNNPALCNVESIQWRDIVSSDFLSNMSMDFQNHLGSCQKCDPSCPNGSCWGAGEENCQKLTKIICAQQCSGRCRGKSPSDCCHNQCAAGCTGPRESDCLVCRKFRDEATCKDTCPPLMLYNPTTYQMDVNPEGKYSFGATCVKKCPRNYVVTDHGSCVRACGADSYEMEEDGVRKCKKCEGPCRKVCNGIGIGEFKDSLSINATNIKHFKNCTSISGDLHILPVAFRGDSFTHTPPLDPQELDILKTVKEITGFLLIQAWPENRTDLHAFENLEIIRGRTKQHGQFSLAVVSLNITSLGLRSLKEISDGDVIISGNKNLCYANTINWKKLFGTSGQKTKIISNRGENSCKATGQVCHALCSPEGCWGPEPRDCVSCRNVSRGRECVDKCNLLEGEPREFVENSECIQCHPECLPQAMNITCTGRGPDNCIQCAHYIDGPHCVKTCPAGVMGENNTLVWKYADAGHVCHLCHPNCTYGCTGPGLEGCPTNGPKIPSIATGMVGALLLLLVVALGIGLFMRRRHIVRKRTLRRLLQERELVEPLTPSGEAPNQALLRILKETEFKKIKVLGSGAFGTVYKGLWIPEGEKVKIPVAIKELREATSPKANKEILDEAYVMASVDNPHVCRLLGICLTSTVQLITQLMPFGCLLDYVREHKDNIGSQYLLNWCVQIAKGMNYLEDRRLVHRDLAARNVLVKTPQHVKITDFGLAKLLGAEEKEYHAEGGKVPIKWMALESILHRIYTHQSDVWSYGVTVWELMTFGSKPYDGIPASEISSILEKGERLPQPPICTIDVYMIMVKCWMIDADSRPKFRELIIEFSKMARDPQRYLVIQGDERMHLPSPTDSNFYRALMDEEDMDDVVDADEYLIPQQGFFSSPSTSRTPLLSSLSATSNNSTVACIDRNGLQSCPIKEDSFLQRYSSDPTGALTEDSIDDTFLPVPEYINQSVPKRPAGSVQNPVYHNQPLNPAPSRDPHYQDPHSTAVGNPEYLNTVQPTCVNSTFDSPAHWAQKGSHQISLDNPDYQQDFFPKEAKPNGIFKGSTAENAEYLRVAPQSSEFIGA
Serine/threonine-protein kinase MRCK alpha, sequence (Q5VT25 whole entry): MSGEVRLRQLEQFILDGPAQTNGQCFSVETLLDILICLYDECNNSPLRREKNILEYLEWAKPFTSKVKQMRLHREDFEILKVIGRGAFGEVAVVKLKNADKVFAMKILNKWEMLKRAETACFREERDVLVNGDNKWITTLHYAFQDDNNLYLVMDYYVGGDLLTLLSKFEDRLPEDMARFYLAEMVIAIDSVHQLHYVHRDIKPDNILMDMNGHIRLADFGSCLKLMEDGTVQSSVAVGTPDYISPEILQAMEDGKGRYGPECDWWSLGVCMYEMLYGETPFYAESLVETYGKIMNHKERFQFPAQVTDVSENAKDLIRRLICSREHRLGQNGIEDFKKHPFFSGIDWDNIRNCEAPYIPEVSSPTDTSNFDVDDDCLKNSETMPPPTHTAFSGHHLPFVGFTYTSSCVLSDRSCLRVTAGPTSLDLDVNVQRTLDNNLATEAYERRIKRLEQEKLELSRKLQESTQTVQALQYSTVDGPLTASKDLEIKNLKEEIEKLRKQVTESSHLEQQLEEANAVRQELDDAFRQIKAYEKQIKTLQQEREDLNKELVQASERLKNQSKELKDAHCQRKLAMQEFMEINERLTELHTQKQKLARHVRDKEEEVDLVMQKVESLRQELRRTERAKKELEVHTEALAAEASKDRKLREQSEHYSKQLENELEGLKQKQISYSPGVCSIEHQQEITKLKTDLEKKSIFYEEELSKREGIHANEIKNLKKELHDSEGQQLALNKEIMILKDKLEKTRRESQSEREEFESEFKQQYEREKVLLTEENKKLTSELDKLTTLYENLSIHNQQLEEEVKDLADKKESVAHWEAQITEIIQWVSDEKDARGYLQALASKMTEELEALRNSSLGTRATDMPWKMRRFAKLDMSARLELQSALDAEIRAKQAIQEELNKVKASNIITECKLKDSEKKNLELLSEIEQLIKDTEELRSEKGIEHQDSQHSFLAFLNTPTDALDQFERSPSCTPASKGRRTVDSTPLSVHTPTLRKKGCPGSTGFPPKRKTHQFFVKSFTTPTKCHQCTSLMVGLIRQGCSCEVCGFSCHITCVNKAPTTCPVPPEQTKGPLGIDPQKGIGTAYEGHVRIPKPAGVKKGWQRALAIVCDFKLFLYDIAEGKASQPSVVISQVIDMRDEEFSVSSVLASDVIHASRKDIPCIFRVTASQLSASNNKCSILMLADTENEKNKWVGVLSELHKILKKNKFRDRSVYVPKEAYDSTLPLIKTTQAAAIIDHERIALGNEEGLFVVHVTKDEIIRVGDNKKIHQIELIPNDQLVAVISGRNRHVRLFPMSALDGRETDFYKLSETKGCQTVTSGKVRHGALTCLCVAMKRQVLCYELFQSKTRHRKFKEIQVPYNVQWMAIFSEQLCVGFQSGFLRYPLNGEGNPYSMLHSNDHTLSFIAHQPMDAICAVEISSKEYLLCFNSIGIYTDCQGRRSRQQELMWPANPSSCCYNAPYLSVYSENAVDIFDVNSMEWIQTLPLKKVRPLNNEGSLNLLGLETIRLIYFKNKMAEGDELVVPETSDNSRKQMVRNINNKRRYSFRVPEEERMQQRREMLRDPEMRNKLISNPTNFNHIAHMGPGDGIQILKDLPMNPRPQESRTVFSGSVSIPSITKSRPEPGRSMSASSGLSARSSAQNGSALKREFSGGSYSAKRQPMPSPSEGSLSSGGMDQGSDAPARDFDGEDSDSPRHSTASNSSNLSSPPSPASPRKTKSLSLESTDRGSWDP

For the molecule `COC(=O)C1CN(C#N)N(c2ccc(Cl)cc2)C12c1ccccc1-c1ccccc12` (stereo unspecified), the concentration for a half-maximal effect (EC50) (commonly the concentration giving half of the maximal effect) at Streptokinase A is 0.744 µM (active); in the test with Streptococcus, 20.7 µM (active). The half-maximal activity concentration (AC50) (as a rule, the concentration giving half of the maximal activity seen) in the test on INS1 was 2.5 µM (active).

In the case of `CN(C)S(=O)(=O)Oc1cccc(C(=O)Nc2ccc(Cl)c(Cl)c2)c1`, the EC50 in [1] is > 180 µM (inactive).

For `Nc1noc2cccc(-c3cccc(O)c3)c12`, the inhibition constant (Ki) – broadly, a dissociation constant, usually derived from enzyme kinetics or from competition with a known ligand – in [2] was 15.8 µM (active); in test [3], > 3.98 µM (inactive); in test [4], 7.94 µM (active); in [5], > 7.94 µM (inactive); in test [6] it was > 2 µM (inactive); in test [7], > 10 µM (inactive). The Ki in test [8] was > 6.31 µM (inactive); in [9] it was > 7.94 µM (inactive); in test [10], > 7.94 µM (inactive); in [11], > 25.1 µM (inactive); in test [12] it was 2.51 µM (active); in test [13], > 2 µM (inactive). In addition, the Ki in [14] is > 1.58 µM (inactive); in [15] it was > 1.26 µM (inactive); in [16] it was > 25.1 µM (inactive); in test [17], 1 µM (active); on Aurora kinase A it was > 31.6 µM (inactive); in test [18], > 1.58 µM (inactive). The Ki in [19] was > 1.58 µM (inactive).

As for `O=C1NC(=S)S/C1=C\C=C\c1ccc([N+](=O)[O-])o1`, the AC50 in the test on HeLa was 12.5 µM (active). Further, the IC50 (commonly the concentration needed to halve the response being measured) in [20] is 1.92 µM (active).

As for `O=C(NN1C(=O)CSC1=S)C(=O)NN1C(=O)CSC1=S`, the AC50 at Caspase-6 was 0.276 µM (active).
